In patent US20250236642A1, “PHARMACEUTICAL COMPOSITION FOR TREATMENT OR PREVENTION OF ADULT T-CELL LEUKEMIA” (NEC Corporation, priority 2022, published 2025):
Where two headings read alike, the source gives them in different places. No end group written: not given here.

What was measured:
HLA-A*02:06 molecule = target: T1, HLA-A*02:06 molecule (Homo sapiens, UniProt P04439, D140Y/D185E/D98H/E176V/E277Q/F33Y/G131W/G231S/I119V/I121R/I166T/I218V/L300P/L318F/N151K/N90K/P208A/P217A/Q86G/Q94H/R138H/R169H/T345S); assay: Binding of peptide to HLA-A*02:06 molecule using RA2.6 cells
T1 construct: expressed in transfected cells; host or cells: RA2.6 cells (mouse TAP-deficient RMAS with HLA-A*02:06 cDNA)
Method: Measurement of binding ability of a peptide to an HLA-A*02:06 molecule, which is a product of an HLA-A*02:06 gene, was performed using RA2.6 cells (a cell line newly created at Kochi University) obtained by introducing cDNA of the HLA-A*02:06 gene into RMAS, which is a mouse transporter associated with antigen processing (TAP)-deficient cell line.
A fluorescently labeled monoclonal antibody BB7.2 that specifically recognizes a peptide binding type HLA-A*02:06 molecule was added thereto, and the mixture was incubated on ice for 20 minutes to stain the cells.

HLA-A*24:02 molecule = HLA-A*24:02 molecule (Homo sapiens, UniProt P04439, D101N/D140Y/D185E/E176V/E190D/F33S/G103R/G107R/I119L/I121M/I306V/K335N/L105A/L180Q/L300P/N151K/N90K/Q86E/Q94H/R106L/R138H/R89G/T104I/T345S/V100E/W191G/Y123F); assay: Binding of peptide to HLA-A*24:02 molecule using C1R-A24 cells
Method: Measurement of binding ability of a peptide to an HLA-A*24:02 molecule, which is a product of an HLA-A*24:02 gene, was performed using C1R-A24 cells expressing an HLA-A*24:02 molecule (Cells created by Professor Masafumi Takiguchi, Kumamoto University, was provided by Assistant Professor Masaki Yasukawa, Ehime University, with permission).
First, the C1R-A24 cells were exposed to acidic conditions at pH 3.3 for 30 seconds to dissociate and remove an endogenous peptide originally binding to an HLA-A*24:02 molecule and light chain β2m commonly associated with an HLA class I molecule. After neutralization, purified β2m was added to the C1R-A24 cells, and the mixture was added to a peptide dilution series and incubated on ice for four hours.
Thereafter, the number of MHC-peps for each C1R-A24 cell (proportional to a fluorescence intensity of the fluorescent antibody) was quantitatively measured using a fluorescence cell analyzer FACScan (Becton-Dickinson).

HLA-A*02:01 molecule = target: T2, HLA-A*02:01 molecule (Homo sapiens, UniProt P04439, D140Y/D185E/D98H/E176V/E277Q/G131W/G231S/I119V/I121R/I166T/I218V/L300P/L318F/N151K/N90K/P208A/P217A/Q86G/Q94H/R138H/R169H/T345S); assay: Binding of peptide to HLA-A*02:01 molecule using cell line T2
T2 construct: using a cell line T2 (purchased from ATCC) expressing an HLA-A*02:01 molecule; host or cells: T2 cell line
Method: Measurement of binding ability of a peptide to an HLA-A*02:01 molecule, which is a product of an HLA-A*02:01 gene, was performed using a cell line T2 (purchased from ATCC) expressing an HLA-A*02:01 molecule.
T2 cells and purified β2m were added to a serial dilution series of a peptide whose binding ability was to be measured, and then the mixture was incubated at 37° C. for four hours. HLA-A*02:01 molecules whose expression level increased in a peptide concentration-dependent manner by this time point were stained using an association-type specific fluorescently labeled monoclonal antibody BB7.2.
Thereafter, the amount of fluorescence per cell was measured with a flow cytometer, and a dissociation constant Kd value was calculated by the method disclosed in the article (Udaka et al., Immunogenetics, 51, 816-828, 2000) by the present inventor.

[1] = Table 2, dissociation constant Kd value (−log Kd value), >−3.0 = no significant binding ability, read-out: Measured value of allele A*02:06 (converted)
[2] = Table 2, dissociation constant Kd value (−log Kd value), >−3.0 = no significant binding ability, read-out: Measured value of allele A*24:02 (converted)
[3] = Table 2, dissociation constant Kd value (−log Kd value), >−3.0 = no significant binding ability, read-out: Measured value of allele A*02:01 (converted)
[4] = Measured value of allele A*24:02, Table 2, dissociation constant Kd value (−log Kd value), >−3.0 = no significant binding ability
[5] = Table 4, Kd value (−log Kd value), smaller than −3 = binding property, read-out: Measured value of allele A*24:02 (converted)

Row | Sequence | Kd (HLA-A*02:06 molecule; [1]) [µM] | Kd (HLA-A*24:02 molecule; [2]) [µM] | Kd (HLA-A*02:01 molecule; [3]) [µM] | Kd (HLA-A*02:06 molecule) [µM] | Kd (HLA-A*24:02 molecule; [4]) [µM] | Kd (HLA-A*02:01 molecule) [µM] | Measured value of allele A*02:06 (HLA-A*02:06 molecule; Table 2, dissociation constant Kd value (−log Kd value), >−3.0 = no significant binding ability) | Kd (HLA-A*24:02 molecule; [5]) [µM] | Measured value of allele A*02:06 (HLA-A*02:06 molecule; Table 4, Kd value (−log Kd value), smaller than −3 = binding property)
1 | ALAPPTAQL [compound 6] | 0.392 | 4.69 | 0.265 | – | – | – | – | – | –
2 | ALLAPAVLL [compound 7] | 1.43 | 1.09 | 0.216 | – | – | – | – | – | –
3 | ALPAPHLTL [compound 18] | – | – | – | 3.03 | 0.185 | 1.02 | – | – | –
4 | ALPKIRARV [compound 12] | 16.6 | 0.66 | 2.19 | – | – | – | – | – | –
5 | ALQFLIPRL [compound 22] | – | – | – | 1.45 | 10.9 | 1.26 | – | – | –
6 | ALQPPCPNL [compound 31] | – | – | – | 23.1 | 4.94 | 7.44 | – | – | –
7 | ALRPAPALL [compound 26] | > 427 | 0.397 | 0.774 | – | – | – | >−3.37 | – | –
8 | AQAPPTAQL [compound 5] | – | – | – | 1.42 | 1.77 | 0.961 | – | – | –
9 | AQISAYRTC [compound 50] | 82.1 | > 1000 | > 1000 | – | – | – | – | > 1000 | –
10 | ARHSTIPLV [compound 77] | > 1000 | > 1000 | > 1000 | – | – | – | – | > 1000 | –
11 | ATAPPTAQL [compound 25] | 0.684 | 29.2 | 10.1 | – | – | – | – | – | –
12 | ATGDCSSFI [compound 59] | > 1000 | > 1000 | 83.1 | – | – | – | – | > 1000 | >−3
13 | AYRTCWIFS [compound 49] | > 1000 | 3.82 | > 1000 | – | – | – | – | – | –
14 | CDLSSFEFF [compound 58] | > 1000 | 80.3 | > 1000 | – | – | – | – | – | –
15 | CIDEHQWQL [compound 28] | 5.62 | 332 | 14 | – | – | – | – | – | –
16 | CLDEHQWQL [compound 9] | 0.474 | 1.36 | 0.216 | – | – | – | – | – | –
17 | CMIVHQGTI [compound 36] | 42.4 | 2.91 | > 1000 | – | – | – | – | – | –
18 | CTDEHQWQL [compound 39] | 0.16 | > 1000 | 9.07 | – | – | – | – | > 1000 | –
19 | EAIDGYITL [compound 47] | 18.9 | 2.91 | > 1000 | – | – | – | – | – | –
20 | ETLQFIDSM [compound 53] | 426 | > 1000 | > 1000 | – | – | – | – | > 1000 | –
21 | FIDSDSSSW [compound 57] | > 1000 | 19.9 | > 1000 | – | – | – | – | – | –
22 | FSNDFGQSL [compound 35] | 19.3 | > 1000 | 126 | – | – | – | – | > 1000 | –

Row | Sequence | Kd (HLA-A*02:06 molecule; [1]) [µM] | Kd (HLA-A*24:02 molecule; [2]) [µM] | Kd (HLA-A*02:01 molecule; [3]) [µM] | Kd (HLA-A*02:06 molecule) [µM] | Kd (HLA-A*24:02 molecule; [4]) [µM] | Kd (HLA-A*02:01 molecule) [µM] | Measured value of allele A*02:06 (HLA-A*02:06 molecule; Table 2, dissociation constant Kd value (−log Kd value), >−3.0 = no significant binding ability) | Kd (HLA-A*24:02 molecule; [5]) [µM] | Measured value of allele A*02:06 (HLA-A*02:06 molecule; Table 4, Kd value (−log Kd value), smaller than −3 = binding property)
23 | GILSDHQQS [compound 74] | > 1000 | > 1000 | > 1000 | – | – | – | – | > 1000 | –
24 | GRVMQIDGV [compound 68] | > 1000 | 23.4 | > 1000 | – | – | – | – | – | –
25 | GSPDEFSND [compound 72] | > 1000 | > 1000 | > 1000 | – | – | – | – | > 1000 | –
26 | GTHLDAGTV [compound 51] | 218 | > 1000 | > 1000 | – | – | – | – | > 1000 | –
27 | GYITCERPF [compound 65] | > 1000 | 0.301 | > 1000 | – | – | – | – | – | –
28 | GYITLGKPH [compound 80] | > 1000 | > 1000 | > 1000 | – | – | – | – | > 1000 | –
29 | HMAKVIEFL [compound 38] | > 1000 | 0.923 | 2.06 | – | – | – | – | – | –
30 | HMTSSERPF [compound 64] | > 1000 | 68.4 | > 1000 | – | – | – | – | – | –
31 | IALETPVWI [compound 20] | – | – | – | 3.03 | 3.29 | 7.77 | – | – | –
32 | IFADVSSST [compound 78] | > 1000 | > 1000 | > 1000 | – | – | – | – | > 1000 | –
33 | ILSDHQQSQ [compound 70] | > 1000 | > 1000 | > 1000 | – | – | – | – | > 1000 | –
34 | IQYSSFHNL [compound 21] | – | – | – | 2.51 | 0.294 | 5.17 | – | – | –
35 | ISAYRTCWI [compound 34] | 729 | 10 | > 1000 | – | – | – | – | – | –
36 | KFLEAFHEV [compound 8] | 1.56 | 0.133 | 1.17 | – | – | – | – | – | –
37 | LAEEHGATL [compound 61] | 32 | > 1000 | > 1000 | – | – | – | – | > 1000 | –
38 | LAITRKSFI [compound 46] | 911 | 7.61 | > 1000 | – | – | – | – | – | –
39 | LHEEHGATL [compound 79] | > 1000 | > 1000 | > 1000 | – | – | – | – | > 1000 | –
40 | LHITRKSFI [compound 63] | > 1000 | 17.5 | > 1000 | – | – | – | – | – | –
41 | LIEEHGATL [compound 40] | 15.3 | > 1000 | 31.9 | – | – | – | – | > 1000 | –
42 | LIITRKSFI [compound 29] | 230 | 2.5 | 78.1 | – | – | – | – | – | –
43 | LLITRKSFI [compound 16] | 23.7 | 0.23 | 7.39 | – | – | – | – | – | –
44 | LLLFSAAAL [compound 1] | 10.9 | 11.1 | 0.881 | – | – | – | – | – | –
